Reference: patent US12098145B2 (Libra Therapeutics, Inc., priority 2022, dated 2024)

molecular target: T1, TRPML1 (Homo sapiens, UniProt Q9GZU1); test: Cellular TRPML1 assay (FLIPR, GCaMP6f calcium read-out); assay type: cell-based; conditions: HEKT-REx/GCaMP6f/TRPML1 cells, FLIPR TETRA, kinetic response over 300 seconds; read-out: TRPML1 FLIPR pEC50 (converted)
T1 construct: expressed in transfected cells; host or cells: HEK T-REx cells stably expressing GCaMP6f and TRPML1
Outline: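 Read-out is GCaMP6f fluorescence over 300 s after compound addition in Ca2+-free Tyrode's buffer, final DMSO 0.5%, on FLIPR Tetra. Cells are HEK T-REx stably co-expressing the indicator and TRPML1, plated 24 h earlier in Optimem + 0.5% FBS and pre-incubated ~10 min at room temperature.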

T1 sequence (Q9GZU1 whole entry): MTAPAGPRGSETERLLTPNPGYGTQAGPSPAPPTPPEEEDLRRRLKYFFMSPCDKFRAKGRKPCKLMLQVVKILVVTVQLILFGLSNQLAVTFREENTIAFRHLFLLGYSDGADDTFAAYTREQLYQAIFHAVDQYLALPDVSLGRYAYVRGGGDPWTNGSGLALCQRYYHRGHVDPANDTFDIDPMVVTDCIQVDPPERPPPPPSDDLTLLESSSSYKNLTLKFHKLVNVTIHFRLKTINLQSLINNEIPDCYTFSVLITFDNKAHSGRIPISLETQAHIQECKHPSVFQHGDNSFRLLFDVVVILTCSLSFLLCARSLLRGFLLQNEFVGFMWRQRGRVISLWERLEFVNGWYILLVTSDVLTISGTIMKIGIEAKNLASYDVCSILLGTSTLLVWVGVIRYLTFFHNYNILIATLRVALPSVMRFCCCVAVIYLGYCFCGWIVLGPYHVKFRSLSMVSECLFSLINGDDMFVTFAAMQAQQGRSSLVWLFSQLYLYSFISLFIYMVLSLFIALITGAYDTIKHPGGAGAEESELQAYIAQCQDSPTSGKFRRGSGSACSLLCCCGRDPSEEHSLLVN

**Q.** How did the EC50 turn out when `O=C(Nc1cc(F)c(OC2CC3(CCC3)C2)c(F)c1)c1nc(N2CCCC2)oc1CC(F)(F)F` [Example 139, N-(3,5-difluoro-4-(spiro[3.3]heptan-2-yloxy)phenyl)-2-(pyrrolidin-1-yl)-5-(2,2,2-trifluoroethyl)oxazole-4-carboxamide] was run?
**A.** 10000 to 100000 nM

**Q.** Which EC50 does the source give for `O=C(Nc1cc(F)c(OC2CC3CCC2C3)c(F)c1)c1nc(N2CCCC2)oc1CC(F)(F)F` (centres unmarked) [Example 141, N-(4-(bicyclo[2.2.1]heptan-2-yloxy)-3,5-difluorophenyl)-2-(pyrrolidin-1-yl)-5-(2,2,2-trifluoroethyl)oxazole-4-carboxamide] here?
**A.** 10 to 1000 nM

**Q.** How did the EC50 turn out when `COC1(C)CN(c2nc(C(=O)Nc3ccc(O[C@@H]4C[C@@H]5C[C@@H]5C4)c(C#N)c3)c(CC(F)(F)F)o2)C1` [Example 146, N-(4-(cis-bicyclo[3.1.0]hexan-3-yloxy)-3-cyanophenyl)-2-(3-methoxy-3-methylazetidin-1-yl)-5-(2,2,2-trifluoroethyl)oxazole-4-carboxamide] was run?
**A.** 1000 to 10000 nM

**Q.** How did the EC50 turn out when `COCCN(CC(C)C)c1nc(C(=O)Nc2cc(F)c(O[C@@H]3C[C@@H]4C[C@@H]4C3)c(F)c2)c(CC(F)(F)F)o1` [Example 147, N-(4-(cis-bicyclo[3.1.0]hexan-3-yloxy)-3,5-difluorophenyl)-2-(isobutyl(2-methoxyethyl)amino)-5-(2,2,2-trifluoroethyl)oxazole-4-carboxamide] was run?
**A.** 1000 to 10000 nM

**Q.** For `CCC1(OC)CN(c2nc(C(=O)Nc3cc(F)c(OC4C[C@@H]5CC[C@H]4C5)c(F)c3)c(CC(F)(F)F)o2)C1` (stereo partly drawn) [Example 151, N-(4-(((1S,4R)-bicyclo[2.2.1]heptan-2-yl)oxy)-3,5-difluorophenyl)-2-(3-ethyl-3-methoxyazetidin-1-yl)-5-(2,2,2-trifluoroethyl)oxazole-4-carboxamide], which EC50 is on record?
**A.** 10 to 1000 nM

**Q.** Which EC50 does the source give for `CCCN(CCOC)c1nc(C(=O)Nc2cc(F)c(O[C@@H]3C[C@@H]4C[C@@H]4C3)c(F)c2)c(CC(F)(F)F)o1` [Example 152, N-(4-(cis-bicyclo[3.1.0]hexan-3-yloxy)-3,5-difluorophenyl)-2-((2-methoxyethyl)(propyl)amino)-5-(2,2,2-trifluoroethyl)oxazole-4-carboxamide] here?
**A.** 10000 to 100000 nM

**Q.** `O=C(Nc1ccc(O[C@@H]2CC3C[C@@H]3C2)c(F)c1)c1nc(N2CC3OCOC3C2)oc1CC(F)(F)F` (stereo partly drawn) [Example 153, N-(4-(cis-bicyclo[3.1.0]hexan-3-yloxy)-3-fluorophenyl)-2-(tetrahydro-5H-[1,3]dioxolo[4,5-c]pyrrol-5-yl)-5-(2,2,2-trifluoroethyl)oxazole-4-carboxamide] was tested. Which EC50 did it give?
**A.** 10 to 1000 nM

**Q.** For `CCC1(CC)CN(c2nc(C(=O)Nc3ccc(OC4CCCOC4)c(F)c3)c(CC(F)(F)F)o2)C1` (centres unmarked) [Example 158, 2-(3,3-diethylazetidin-1-yl)-N-(3-fluoro-4-((tetrahydro-2H-pyran-3-yl)oxy)phenyl)-5-(2,2,2-trifluoroethyl)oxazole-4-carboxamide], which EC50 is on record?
**A.** 10 to 1000 nM

**Q.** `CCC1(OC)CN(c2nc(C(=O)Nc3cc(F)c(OC4CCCOC4)c(F)c3)c(CC(F)(F)F)o2)C1` (centres unmarked) [Example 160, N-(3,5-difluoro-4-((tetrahydro-2H-pyran-3-yl)oxy)phenyl)-2-(3-ethyl-3-methoxyazetidin-1-yl)-5-(2,2,2-trifluoroethyl)oxazole-4-carboxamide] was tested. Which EC50 did it give?
**A.** 10 to 1000 nM

**Q.** Which EC50 does the source give for `O=C(Nc1cc(F)c(O[C@@H]2C[C@@H]3C[C@@H]3C2)c(F)c1)c1nc(N2Cc3conc3C2)oc1CC(F)(F)F` [Example 166, N-(4-(cis-bicyclo[3.1.0]hexan-3-yloxy)-3,5-difluorophenyl)-2-(4H-pyrrolo[3,4-c]isoxazol-5(6H)-yl)-5-(2,2,2-trifluoroethyl)oxazole-4-carboxamide] here?
**A.** 10 to 1000 nM

**Q.** `CCC1(OC)CN(c2nc(C(=O)Nc3cc(F)c(O[C@@H]4C[C@@H]5C[C@@H]5C4)c(F)c3)c(CC(F)(F)F)o2)C1` [Example 167, N-(4-(cis-bicyclo[3.1.0]hexan-3-yloxy)-3,5-difluorophenyl)-2-(3-ethyl-3-methoxyazetidin-1-yl)-5-(2,2,2-trifluoroethyl)oxazole-4-carboxamide] was tested. Which EC50 did it give?
**A.** 10 to 1000 nM

**Q.** How did the EC50 turn out when `COCC1(COC)CN(c2nc(C(=O)Nc3cc(F)c(O[C@@H]4C[C@@H]5C[C@@H]5C4)c(F)c3)c(CC(F)(F)F)o2)C1` [Example 168, N-(4-(cis-bicyclo[3.1.0]hexan-3-yloxy)-3,5-difluorophenyl)-2-(3,3-bis(methoxymethyl)azetidin-1-yl)-5-(2,2,2-trifluoroethyl)oxazole-4-carboxamide] was run?
**A.** 10 to 1000 nM

**Q.** For `O=C(Nc1cc(F)c(OC2CC3CC(C3)C2)c(F)c1)c1nc(N2CCCC2)oc1CC(F)(F)F` (centres unmarked) [Example 169, N-(4-(bicyclo[3.1.1]heptan-3-yloxy)-3,5-difluorophenyl)-2-(pyrrolidin-1-yl)-5-(2,2,2-trifluoroethyl)oxazole-4-carboxamide], which EC50 is on record?
**A.** 10 to 1000 nM

**Q.** How did the EC50 turn out when `O=C(Nc1cc(F)c(OC2CC3C[C@@H]3C2)c(F)c1)c1nc(N2CC3CC2C3)oc1CC(F)(F)F` (stereo partly drawn) [Example 175, 2-(2-azabicyclo[2.1.1]hexan-2-yl)-N-(4-(cis-bicyclo[3.1.0]hexan-3-yloxy)-3,5-difluorophenyl)-5-(2,2,2-trifluoroethyl)oxazole-4-carboxamide] was run?
**A.** 10 to 1000 nM

**Q.** Which EC50 does the source give for `CC1CN(c2nc(C(=O)Nc3cc(F)c(OC4CC5C[C@H]5C4)c(F)c3)c(CC(F)(F)F)o2)CC(C)O1` (stereo partly drawn) [Example 176, N-(4-(cis-bicyclo[3.1.0]hexan-3-yloxy)-3,5-difluorophenyl)-2-(2,6-dimethylmorpholino)-5-(2,2,2-trifluoroethyl)oxazole-4-carboxamide] here?
**A.** 10000 to 100000 nM

**Q.** How did the EC50 turn out when `O=C(Nc1cc(F)c(O[C@@H]2C[C@@H]3C[C@@H]3C2)c(F)c1)c1nc(N2CCOCC2)oc1CC(F)(F)F` [Example 181, N-(4-(cis-bicyclo[3.1.0]hexan-3-yloxy)-3,5-difluorophenyl)-2-morpholino-5-(2,2,2-trifluoroethyl)oxazole-4-carboxamide] was run?
**A.** 1000 to 10000 nM

**Q.** With `O=C(Nc1cc(F)c(OC2CC3C[C@@H]3C2)c(F)c1)c1nc(N2CC3CC2CO3)oc1CC(F)(F)F` (stereo partly drawn) [Example 182, 2-(2-oxa-5-azabicyclo[2.2.1]heptan-5-yl)-N-(4-(cis-bicyclo[3.1.0]hexan-3-yloxy)-3,5-difluorophenyl)-5-(2,2,2-trifluoroethyl)oxazole-4-carboxamide] as the compound, how does the EC50 read?
**A.** 1000 to 10000 nM

**Q.** With `CC1(C)CN(c2nc(C(=O)Nc3cc(F)c(O[C@@H]4C[C@@H]5C[C@@H]5C4)c(F)c3)c(CC(F)(F)F)o2)CCO1` [Example 184, N-(4-(cis-bicyclo[3.1.0]hexan-3-yloxy)-3,5-difluorophenyl)-2-(2,2-dimethylmorpholino)-5-(2,2,2-trifluoroethyl)oxazole-4-carboxamide] as the compound, how does the EC50 read?
**A.** 1000 to 10000 nM

**Q.** With `O=C(Nc1ccc(OC2CC3C[C@@H]3C2)c(F)c1)c1nc(N2CC3CCOC3C2)oc1CC(F)(F)F` (stereo partly drawn) [Example 187, N-(4-(cis-bicyclo[3.1.0]hexan-3-yloxy)-3-fluorophenyl)-2-(hexahydro-5H-furo[2,3-c]pyrrol-5-yl)-5-(2,2,2-trifluoroethyl)oxazole-4-carboxamide] as the compound, how does the EC50 read?
**A.** 10 to 1000 nM

**Q.** How did the EC50 turn out when `O=C(Nc1cc(F)c(O[C@@H]2C[C@@H]3C[C@@H]3C2)c(F)c1)c1nc(N2CC3(CCOCC3)C2)oc1CC(F)(F)F` [Example 188, N-(4-(cis-bicyclo[3.1.0]hexan-3-yloxy)-3,5-difluorophenyl)-2-(7-oxa-2-azaspiro[3.5]nonan-2-yl)-5-(2,2,2-trifluoroethyl)oxazole-4-carboxamide] was run?
**A.** 10 to 1000 nM
